Laboratory results as given in ChEMBL document CHEMBL1130560, “Kinetic studies of the reaction of S-nitroso-L-cysteine with L-cysteine” (Bioorg Med Chem Lett, 1997).

Experiment: First order rate constant for spontaneous decomposition
Format: ADME

Rate constant: 0.0000146 s⁻¹
Structure (SMILES): N[C@@H](CSN=O)C(=O)O
